Assay results as given in patent US20240150347A1, “INHIBITING CYCLIC AMP-RESPONSIVE ELEMENT-BINDING PROTEIN (CREB) BINDING PROTEIN (CBP)” (FORMATherapeutics,Inc., priority 2020, published 2024).
Structures can show the parent of a compound that is named as a salt.

Assays:
[1] = Dynamic vapor sorption (hygroscopicity); type: physicochemical; settings: relative humidity of up to 80%, dynamic vapor sorption isotherm plots
Description: Dynamic Vapor Sorption (DVS) data were collected with a SMS DVS Intrinsic from Surface Measurement Systems.

panel of 10 bromodomains = test: AlphaScreen panel of 10 BRD; type: binding; settings: 10 BRD of various branches of the bromodomain tree
[2] = test system: human kinases and disease-relevant mutant variants; test: KINOMEscan screen for kinase inhibition; type: binding

Row | Structure (SMILES) | water uptake [1] [%] | activity against panel of 10 bromodomains (panel of 10 bromodomains) | binding affinity for human kinases and disease-relevant mutant variants [2]
1 | COC(=O)N1c2ccc3c(nc([C@H](O)c4cc(F)ccc4OC)n3[C@@H]3CCC[C@@H](C(=O)O)C3)c2CC[C@@H]1C [type B p-toluenesulfonic acid addition salt] | 2.1 |  | 
2 | COC(=O)N1c2ccc3c(nc([C@H](O)c4cc(F)ccc4OC)n3[C@@H]3CCC[C@@H](C(=O)O)C3)c2CC[C@@H]1C [Compound 1, (1R,3R)-3-[(7S)-2-[(R)-(5-fluoro-2-methoxyphenyl)(hydroxy)methyl]-6-(methoxycarbonyl)-7-methyl-3H,6H,7H,8H,9H-imidazo[4,5-f]quinolin-3-yl]cyclohexane-1-carboxylic acid] |  | inactive against 8 | no to low binding affinity
3 | COC(=O)N1c2ccc3c(nc([C@H](O)c4cc(F)ccc4OC)n3[C@@H]3CCC[C@@H](C(=O)O)C3)c2CC[C@@H]1C [HCl type A salt, (1R,3R)-3-((S)-2-((R)-(5-fluoro-2-methoxyphenyl)(hydroxy)methyl)-6-(methoxycarbonyl)-7-methyl-6,7,8,9-tetrahydro-3H-imidazo [4,5-f]quinolin-3-yl)cyclohexane-1-carboxylic acid] | 6.3 |  | 
